Data: CN109096271A, “噻吩类化合物及其作为usp7抑制剂和抗肿瘤药物的应用” (China Pharmaceutical University, priority 2018, dated 2018)

Experiments:
[1] = test system: human colon cancer cells HCT-116 [人结肠癌细胞HCT-116]; assay: Antiproliferative activity on human colon cancer HCT-116 cells (MTT staining); assay type: cell-based; conditions: HCT-116 wild type, 72 h
[2] = target: T1, full-length USP7 enzyme [全长USP7酶] (Homo sapiens, UniProt Q93009); assay: Inhibition of full-length USP7 enzyme in vitro (Ub-AMC method); assay type: biochemical; conditions: half-maximal inhibitory concentration; full-length USP7, Ub-AMC substrate, 30 min preincubation at room temperature (25℃), 2 h reaction, pH 7.6; read-out: EC50 (the source's name)
T1 construct: 全长USP7蛋白,Ub-AMC底物蛋白,实验缓冲液
T1 sequence (Q93009 whole entry): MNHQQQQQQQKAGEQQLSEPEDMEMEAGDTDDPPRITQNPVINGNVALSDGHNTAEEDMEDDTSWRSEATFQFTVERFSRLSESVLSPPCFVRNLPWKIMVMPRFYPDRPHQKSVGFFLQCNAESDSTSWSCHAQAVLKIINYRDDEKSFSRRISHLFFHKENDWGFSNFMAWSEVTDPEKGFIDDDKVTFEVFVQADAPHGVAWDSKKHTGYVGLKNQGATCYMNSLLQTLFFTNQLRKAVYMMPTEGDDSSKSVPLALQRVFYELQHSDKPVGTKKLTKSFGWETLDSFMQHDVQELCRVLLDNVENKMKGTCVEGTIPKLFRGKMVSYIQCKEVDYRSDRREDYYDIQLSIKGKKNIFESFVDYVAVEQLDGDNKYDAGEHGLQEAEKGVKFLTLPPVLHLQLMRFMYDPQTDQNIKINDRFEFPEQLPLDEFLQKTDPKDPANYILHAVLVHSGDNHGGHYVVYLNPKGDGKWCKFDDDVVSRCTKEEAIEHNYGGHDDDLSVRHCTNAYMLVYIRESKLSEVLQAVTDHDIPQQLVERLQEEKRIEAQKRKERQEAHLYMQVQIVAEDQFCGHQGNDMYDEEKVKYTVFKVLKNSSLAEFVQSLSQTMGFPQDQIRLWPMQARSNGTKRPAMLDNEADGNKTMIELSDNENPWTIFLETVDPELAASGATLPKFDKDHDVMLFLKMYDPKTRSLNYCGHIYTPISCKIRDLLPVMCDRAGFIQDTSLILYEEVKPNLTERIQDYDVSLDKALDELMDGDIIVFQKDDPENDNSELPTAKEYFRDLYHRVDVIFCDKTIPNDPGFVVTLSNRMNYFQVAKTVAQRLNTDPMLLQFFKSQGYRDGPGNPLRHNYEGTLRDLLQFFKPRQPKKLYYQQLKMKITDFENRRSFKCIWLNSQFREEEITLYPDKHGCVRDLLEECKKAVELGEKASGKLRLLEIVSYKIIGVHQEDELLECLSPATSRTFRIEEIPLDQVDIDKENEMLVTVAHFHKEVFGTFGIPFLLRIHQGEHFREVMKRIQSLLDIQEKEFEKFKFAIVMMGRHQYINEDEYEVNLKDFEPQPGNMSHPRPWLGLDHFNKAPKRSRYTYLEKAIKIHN

Molecule	IC50 ([1]; Homo sapiens)	IC50 [2]	IC50 [1]
CN1CCCC(Oc2ccc(NC(=O)c3cc([N+](=O)[O-])c(Sc4c(Cl)cncc4Cl)s3)cc2)CC1 (stereo not shown) [I-6, 5-((3,5-二氯吡啶-4-基)硫基)-N-(4-((1-甲基吖庚烷-4-基)氧基)苯基)-4-硝基噻吩-2-甲酰胺]	1.98 µM	4.56 µM	
CN1CCN(CC(=O)Nc2ccc(NC(=O)c3cc([N+](=O)[O-])c(Sc4c(Cl)cncc4Cl)s3)cc2)CC1 [I-15, 5-((3,5-二氯吡啶-4-基)硫基)-N-(4-(2-(4-甲基哌嗪-1-基)乙酰氨基)苯 基)-4-硝基噻吩-2-甲酰胺]	4.87 µM	7.26 µM	
CN(C)CCN1CCN(C(=O)c2ccc(NC(=O)c3cc([N+](=O)[O-])c(Sc4c(Cl)cncc4Cl)s3)cc2)CC1 [I-11, 5-((3,5-二氯吡啶-4-基)硫基)-N-(4-(4-(2-(二甲基氨基)乙基)哌嗪-1-羰基)苯基)-4-硝基噻吩-2-甲酰胺]	7.63 µM	2.5 µM	
((3,5-二氯吡啶-4-基)硫基)-N-(4-((2-(4-甲基哌嗪-1-基)乙酰氨基)甲基) 苯基)-4-硝基噻吩-2-甲酰胺 [I-13]		3.71 µM	3.26 µM
CC1CS(=O)(=O)c2cc(NC(=O)c3cc([N+](=O)[O-])c(Sc4c(Cl)cncc4Cl)o3)ccc21 (stereo not shown) [I-1, 5-((3,5-二氯吡啶-4-基)硫基)-N-(3-甲基-1,1-二氧代-2,3-二氢苯并[b]噻吩-6-基)-4-硝基呋喃-2-甲酰胺]	> 50 µM	> 50 µM	
CS(=O)(=O)N1CCN(c2ccc(NC(=O)c3cc([N+](=O)[O-])c(Sc4c(Cl)cncc4Cl)s3)cc2)CC1 [I-9, 5-((3,5-二氯吡啶-4-基)硫基)-N-(4-(4-(甲基磺酰基)哌嗪-1-基)苯基) -4-硝基噻吩-2-甲酰胺]	2.99 µM	42.5 µM	
CN1CCC(Oc2ccc(NC(=O)c3cc([N+](=O)[O-])c(Sc4c(Cl)cncc4Cl)s3)cc2)CC1 [I-5, 5-((3,5-二氯吡啶-4-基)硫基)-N-(4-((1-甲基哌啶-4-基)氧基)苯基)-4-硝基噻吩-2-甲酰胺]	2.39 µM	2.85 µM	
O=C(NCCN1CCOCC1)c1ccc(NC(=O)c2cc([N+](=O)[O-])c(Sc3c(Cl)cncc3Cl)s2)cc1 [I-12, ((3,5-二氯吡啶-4-基)硫基)-N-(4-((2-吗啉代乙基)氨基甲酰基)苯基)-4-硝基噻吩-2-甲酰胺]	1.82 µM	1.18 µM	
CC1CS(=O)(=O)c2cc(NC(=O)c3cc([N+](=O)[O-])c(Sc4c(Cl)cncc4Cl)[nH]3)ccc21 (stereo not shown) [I-2, 5-((3,5-二氯吡啶-4-基)硫基)-N-(3-甲基-1,1-二氧代-2,3-二氢苯并[b]噻吩-6-基)-4-硝基-1H-吡咯-2-甲酰胺]	> 50 µM	> 50 µM	
CN1CCC(Oc2ccc(NC(=O)c3cc([N+](=O)[O-])c(Sc4c(Cl)cncc4Cl)s3)cc2)C1 (stereo not shown) [I-4, 5-((3,5-二氯吡啶-4-基)硫基)-N-(4-((1-甲基吡咯烷-3-基)氧基)苯基) -4-硝基噻吩-2-甲酰胺]	2.65 µM	4.45 µM	
O=C(NCCN1CCOCC1)c1cc([N+](=O)[O-])c(Sc2c(Cl)cncc2Cl)s1 [I-16, 5-((3,5-二氯吡啶-4-基)硫基)-N-(2-吗啉代乙基)-4-硝基噻吩-2-甲酰胺]	4.82 µM	4.59 µM	
CN1CCCN(c2ccc(NC(=O)c3cc([N+](=O)[O-])c(Sc4c(Cl)cncc4Cl)s3)cc2)CC1 [I-7, 5-((3,5-二氯吡啶-4-基)硫基)-N-(4-(4-甲基-1,4-二氮杂环庚烷-1-基)苯基)-4-硝基噻吩-2-甲酰胺]	3.48 µM	6.9 µM	
O=C(NCCc1ccc2c(c1)OCO2)c1cc([N+](=O)[O-])c(Sc2c(Cl)cncc2Cl)s1 [I-18, N-(2-(苯并[d][1,3]二氧杂环戊烯-5-基)乙基)-5-((3,5-二氯吡啶-4-基)硫基)-4-硝基噻吩-2-甲酰胺]	> 50 µM	> 50 µM	
CN(C)CCN1CCN(C(=O)c2cc([N+](=O)[O-])c(Sc3c(Cl)cncc3Cl)s2)CC1 [I-17, (5-((3,5-二氯吡啶-4-基)硫基)-4-硝基噻吩-2-基)(4-(2-(二甲基氨基)乙 基)哌嗪-1-基)甲酮]	8.53 µM	6.59 µM	
CC1CS(=O)(=O)c2cc(NC(=O)c3cc([N+](=O)[O-])c(Sc4c(Cl)cncc4Cl)n3C)ccc21 (stereo not shown) [I-3, 5-((3,5-二氯吡啶-4-基)硫基)-1-甲基-N-(3-甲基-1,1-二氧代-2,3-二氢苯并[b] 噻吩-6-基)-4-硝基-1H-吡咯-2-甲酰胺]	> 50 µM	> 50 µM	
CN1CCN(C(=O)c2ccc(NC(=O)c3cc([N+](=O)[O-])c(Sc4c(Cl)cncc4Cl)s3)cc2)CC1 [I-10, 5-((3,5-二氯吡啶-4-基)硫基)-N-(4-(4-甲基哌嗪-1-羰基)苯基)-4-硝基噻吩-2-甲酰胺]	3.36 µM	2.96 µM	
CN1CCN(CC(=O)NCc2ccc(NC(=O)c3cc([N+](=O)[O-])c(Sc4c(Cl)cncc4Cl)s3)cc2)CC1 [I-14, ((3,5-二氯吡啶-4-基)硫基)-N-(4-((2-(4-甲基哌嗪-1-基)乙酰氨基)甲基) 苯基)-4-硝基噻吩-2-甲酰胺]	4.74 µM	3.65 µM	
